The nature of test [1]: Inhibition of Lacticaseibacillus casei TS.
The target of test [2] is Thymidylate synthase (Homo sapiens, UniProt P04818). Kind of test: Inhibition of human TS.
The nature of test [3]: Binding affinity to AT1 in rabbit aorta. It counts as tissue-based, Oryctolagus cuniculus.

Bounds are passed on as bounds.

Thymidylate synthase, sequence (P04818 whole entry): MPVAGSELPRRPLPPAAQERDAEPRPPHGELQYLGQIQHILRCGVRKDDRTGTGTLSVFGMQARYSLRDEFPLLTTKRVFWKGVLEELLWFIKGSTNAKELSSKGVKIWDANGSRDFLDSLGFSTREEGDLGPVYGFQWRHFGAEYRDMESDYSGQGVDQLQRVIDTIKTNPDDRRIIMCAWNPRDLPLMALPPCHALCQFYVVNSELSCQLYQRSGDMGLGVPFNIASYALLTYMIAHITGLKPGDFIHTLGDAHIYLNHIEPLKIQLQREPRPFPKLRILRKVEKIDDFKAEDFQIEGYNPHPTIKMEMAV

On to `COC(=O)[C@H](Cc1ccc(N)cc1)NC(=O)c1ccc(Sc2c(C)ccc3nc(N)[nH]c(=O)c23)cc1`, for which the half-inhibitory concentration (IC50) in test [1] is 200 nM; in test [2], 3 nM.

Turning to `COC(=O)c1cccc([C@H](NC(=O)c2ccc(Sc3c(C)ccc4nc(N)nc(O)c34)cc2)C(=O)OC)c1`, the concentration for half-maximal inhibition (IC50) in test [1] came out at 200 nM; in test [2], 3 nM.

In the case of `COC(=O)[C@H](Cc1ccc(O)cc1)NC(=O)c1ccc(Sc2c(C)ccc3nc(N)[nH]c(=O)c23)cc1`, the half-maximal inhibitory concentration (IC50) was determined as 200 nM in test [1] and 3 nM in test [2].

`Cc1ccc2nc(N)nc(O)c2c1Sc1ccc(C(=O)N[C@H](C(=O)O)c2cccc(C(=O)O)c2)cc1`: the half-maximal inhibitory concentration (IC50) in test [1] was 200 nM; in test [2], 3 nM.

In test [3], `CCCCc1nc2ccccc2c(=O)n1Cc1ccc(-c2ccccc2-c2nn[nH]n2)cc1` had a concentration for half-maximal inhibition (IC50) not below 1.3 nM.

The compound `CCCCc1nc2c(C)cccc2c(=O)n1Cc1ccc(-c2ccccc2C(=O)O)cc1` registered an IC50 in test [3] of 370 nM.

For `Cc1ccc2nc(N)[nH]c(=O)c2c1Sc1ccc(C(=O)N[C@@H](Cc2ccccc2)C(=O)O)cc1`, the IC50 was 200 nM in test [1] and 3 nM in test [2].

`CCCCc1nc2ccc(Cl)cc2c(=O)n1Cc1ccc(-c2ccccc2-c2nn[nH]n2)cc1` displayed a half-inhibitory concentration (IC50) in test [3] not below 1.3 nM.

For `Cc1ccc2nc(N)[nH]c(=O)c2c1Sc1ccc(C(=O)N[C@H](C)c2ccccc2)cc1`, the values for the IC50 in test [1] and in test [2] were 200 nM and 3 nM, respectively.

For the compound `CCCCc1nc2cccc(C)c2c(=O)n1Cc1ccc(-c2ccccc2C(=O)O)cc1`, in test [3], the IC50 was found to be 370 nM.

`CCCCc1nc2cccc(F)c2c(=O)n1Cc1ccc(-c2ccccc2-c2nn[nH]n2)cc1` returned a concentration for half-maximal inhibition (IC50) in test [3] not below 1.3 nM.

As for `CS(C)(=O)=O` [DIMETHYL SULFONE], in test [3], the IC50 worked out at 2.6 nM.

Regarding `Cc1ccc2nc(N)[nH]c(=O)c2c1Sc1ccc(C(=O)N[C@H](CO)c2ccccc2)cc1`, the results for the IC50 in test [1] and in test [2] were 200 nM and 3 nM, respectively.

In test [3], `CCCCc1nc2cc3ccccc3cc2c(=O)n1Cc1ccc(-c2ccccc2C(=O)O)cc1` yielded an IC50 of 10 nM.

With `Cc1ccc2nc(N)nc(O)c2c1Sc1ccc(C(=O)N[C@H](C(=O)O)c2cccc(O)c2)cc1`, the IC50 in test [1] was found to be 200 nM; in test [2], 3 nM.

As for `CCCCC(=O)Nc1ccc2nc(CCCC)n(Cc3ccc(-c4ccccc4-c4nn[nH]n4)cc3)c(=O)c2c1`, the IC50 in test [3] was not below 1.3 nM.

In test [3], `CCCCc1nc2cc(OC)c(OC)cc2c(=O)n1Cc1ccc(-c2ccccc2-c2nn[nH]n2)cc1` registered an IC50 not below 1.3 nM.

`CCCc1nc2ccc(C)cc2c(=O)n1Cc1ccc(-c2ccccc2-c2nn[nH]n2)cc1` had an IC50 in test [3] not below 1.3 nM.

Compound `CCCCCc1nc2ccc(C)cc2c(=O)n1Cc1ccc(-c2ccccc2-c2nn[nH]n2)cc1` yielded an IC50 in test [3] not below 1.3 nM.

Compound `CCCCc1nc2ccc(N)cc2c(=O)n1Cc1ccc(-c2ccccc2-c2nn[nH]n2)cc1` displayed a concentration for half-maximal inhibition (IC50) in test [3] not below 1.3 nM.

For the compound `CCCCc1nc2ccc(I)cc2c(=O)n1Cc1ccc(-c2ccccc2-c2nn[nH]n2)cc1`, the IC50 in test [3] was not below 1.3 nM.

For the compound `CCCCc1nc2cc(Cl)ccc2c(=O)n1Cc1ccc(-c2ccccc2-c2nn[nH]n2)cc1`, the IC50 in test [3] is not below 1.3 nM.

In turn, `CCCCc1nc2ccc(C(F)(F)F)cc2c(=O)n1Cc1ccc(-c2ccccc2-c2nn[nH]n2)cc1` returned an IC50 in test [3] not below 1.3 nM.

In turn, `CCCCc1nc2ccc([N+](=O)[O-])cc2c(=O)n1Cc1ccc(-c2ccccc2-c2nn[nH]n2)cc1` displayed an IC50 in test [3] not below 1.3 nM.

`CCCCc1nc2ccccc2c(=O)n1Cc1ccc(-c2ccccc2C(=O)O)cc1` showed a half-maximal inhibitory concentration (IC50) in test [3] of 92 nM.

`CCCCc1nc2cc(C)ccc2c(=O)n1Cc1ccc(-c2ccccc2C(=O)O)cc1` yielded a concentration for half-maximal inhibition (IC50) in test [3] of 370 nM.

In test [3], `CCCCc1nc2ccc(OC)cc2c(=O)n1Cc1ccc(-c2ccccc2-c2nn[nH]n2)cc1` yielded a half-inhibitory concentration (IC50) not below 1.3 nM.

In the case of `CCCCc1nc2ccc(C)cc2c(=O)n1Cc1ccc(-c2ccccc2-c2nn[nH]n2)cc1`, the 50% inhibitory concentration (IC50) in test [3] is not below 1.3 nM.

In the case of `CCc1nc2ccc(C)cc2c(=O)n1Cc1ccc(-c2ccccc2-c2nn[nH]n2)cc1`, in test [3], the IC50 was not below 1.3 nM.

Compound `CCCCc1nc2ccc(NC(C)=O)cc2c(=O)n1Cc1ccc(-c2ccccc2-c2nn[nH]n2)cc1` gave an IC50 in test [3] not below 1.3 nM.

As usually defined, the IC50 is the concentration needed to halve the response being measured. Low values mean greater potency in that assay, high ones weaker potency in that assay.
